Structures can show the parent of a compound that is named as a salt.
Columns and labels:
[1] = Decomposition point measurement (TG/DTA); format: physicochemical; conditions: temperature at which the mass started to decrease, differential thermal analysis, temperature-rise rate 10° C./minute
Description: The UV-Visible absorption spectra measurement was conducted by preparing a chloroform solution of each compound to be tested, and employing a UV-Vis-NIR spectrophotometer (“V-570”; product from JASCO Corporation). The decomposition point measurement was conducted using a thermogravimetry differential thermal analyzer (“TG/DTA 6200”; product from Seiko Instruments Inc.), to find the temperature at which the mass started to decrease in differential thermal analysis at a temperature-rise rate of 10° C./minute.

[2] = Solubility measurement in methyl ethyl ketone (MEK); format: physicochemical; conditions: concentration when the solute completely dissolved
Description: The solubility measurement was conducted as follows: the compound to be tested was weighed; methyl ethyl ketone (MEK) was slowly added thereto; when the solute completely dissolved, the solution was weighed; and the concentration of the test compound in the solution was determined by calculation.

Compound | Decomposition Point [1] [°C] | Solubility (MEK) [2] [wt %]
O=S(=O)(c1ccc2c(c1)[S][Cu-]1([S]2)[S]c2ccc(S(=O)(=O)N3CCOCC3)cc2[S]1)N1CCOCC1 [1-3, reference compound] | 198.7 | 0.20
CN1/C(=C/C=C/C=C/C=C/C=C/C2=[N+](C)c3c(c4ccccc4c4ccccc34)C2(C)C)C(C)(C)c2c1c1ccccc1c1ccccc21 [1-4, reference compound] | 261.3 | 0.28
CN1/C(=C/C=C/C=C/C=C/C=C/C2=[N+](C)c3ccccc3C2(Cc2ccccc2)Cc2ccccc2)C(Cc2ccccc2)(Cc2ccccc2)c2ccccc21 [Example 1-1, Tetrafluoroborate Salt of Compound No. 2] | 238.3 | 0.16
CN1/C(=C/C=C/C=C/C=C/C=C/C2=[N+](C)c3ccccc3C2(Cc2ccccc2)Cc2ccccc2)C(Cc2ccccc2)(Cc2ccccc2)c2ccccc21 [Example 1-2, Bis(Trifluoromethane Sulfone)Imide Salt of Compound No. 2] | 248.6 | 2.34
CN1/C(=C/C=C/C=C/C=C/C=C/C2=[N+](C)c3ccc4ccccc4c3C2(C)Cc2ccccc2)C(C)(Cc2ccccc2)c2c1ccc1ccccc21 (stereo not shown) [Example 1-3, Tetrafluoroborate Salt of Compound No. 3] | 180.5 | 0.97
CN1/C(=C/C=C/C=C/C=C/C=C/C2=[N+](C)c3ccc4ccccc4c3C2(C)Cc2ccccc2)C(C)(Cc2ccccc2)c2c1ccc1ccccc21 (stereo not shown) [Example 1-4, Bis(Trifluoromethane Sulfone)Imide Salt of Compound No. 3] | 255.8 | 0.98
O=S(=O)(c1ccc2c(c1)[S][Cu-]1([S]2)[S]c2ccc(S(=O)(=O)N3CCOCC3)cc2[S]1)N1CCOCC1 [Example 1-5, Quencher (1-1) Salt of Compound No. 3] | 249.1 | 0.39
CN1/C(=C/C=C/C=C/C=C/C=C/C2=[N+](C)c3ccc4ccccc4c3C2(Cc2ccccc2)Cc2ccccc2)C(Cc2ccccc2)(Cc2ccccc2)c2c1ccc1ccccc21 [Example 1-6, Tetrafluoroborate Salt of Compound No. 4] | 192.6 | 1.62
CN1/C(=C/C=C/C=C/C=C/C=C/C2=[N+](C)c3ccc4ccccc4c3C2(Cc2ccccc2)Cc2ccccc2)C(Cc2ccccc2)(Cc2ccccc2)c2c1ccc1ccccc21 [Example 1-7, Bis(Trifluoromethane Sulfone)Imide Salt of Compound No. 4] | 266.5 | 3.71
O=S(=O)(c1ccc2c(c1)[S][Cu-]1([S]2)[S]c2ccc(S(=O)(=O)N3CCOCC3)cc2[S]1)N1CCOCC1 [Example 1-8, Quencher (1-1) Salt of Compound No. 4] | 258.8 | 3.69
CCCN1/C(=C/C=C/C=C/C=C/C=C/C2=[N+](CCC)c3ccc4ccccc4c3C2(Cc2ccccc2)Cc2ccccc2)C(Cc2ccccc2)(Cc2ccccc2)c2c1ccc1ccccc21 [Example 1-9, Tetrafluoroborate Salt of Compound No. 6] | 193.8 | 1.36
CN1/C(=C/C=C/C=C/C=C/C=C/C2=[N+](C)c3ccccc3C2(C)C)C(C)(C)c2ccccc21 [Example 1-10, bis(trifluoromethane sulfone)imide salt of Compound No. 61] | 238.4 | 0.73
CN1/C(=C/C=C/C=C/C=C/C=C/C2=[N+](C)c3ccc4ccccc4c3C23CCCCC3)C2(CCCCC2)c2c1ccc1ccccc21 [Example 1-11, bis(trifluoromethane sulfone)imide salt of Compound No. 64] | 280.7 | 1.46
CN1/C(=C/C=C/C=C/C=C/C=C/C2=[N+](C)c3c(c4ccccc4c4ccccc34)C2(C)C)C(C)(C)c2c1c1ccccc1c1ccccc21 [Example 1-12, bis(trifluoromethane sulfone)imide salt of Compound No. 105] | 291.5 | 1.13
